Paper PMC9629815, “MK256 is a novel CDK8 inhibitor with potent antitumor activity in AML through downregulation of the STAT pathway” (Oncotarget, 2022)

How the values were obtained:
CDK1/cyclin B = CDK1/cyclin B (Homo sapiens, UniProt P06493); assay: CDK panel kinase inhibition; format: biochemical; details: read-out: Percentage of inhibition (%)
Excerpt: (§1) MK256 was synthesized in house. The kinase profiling of MK256 against various targets was done using the SelectScreen Kinase Profiling Services provided by ThermoFisher Scientific (Walham WA, USA). https://www.thermofisher.com/us/en/home/products-and-services/services/custom-services/screening-and-profiling-services/selectscreen-profiling-service/selectscreen-kinase-profiling-service.html.

CDK13/cyclin K = CDK13/cyclin K (Homo sapiens, UniProt Q14004); assay: CDK panel kinase inhibition; format: biochemical; details: read-out: Percentage of inhibition (%)
Excerpt: as §1

CDK14 (PFTK1)/cyclin Y = CDK14 (PFTK1)/cyclin Y (Homo sapiens, UniProt O94921); assay: CDK panel kinase inhibition; format: biochemical; details: read-out: Percentage of inhibition (%)
Excerpt: as §1

CDK16 (PCTK1)/cyclin Y = CDK16 (PCTK1)/cyclin Y (Homo sapiens, UniProt Q00536); assay: CDK panel kinase inhibition; format: biochemical; details: read-out: Percentage of inhibition (%)
Excerpt: as §1

CDK17/cyclin Y = CDK17/cyclin Y (Homo sapiens, UniProt Q00537); assay: CDK panel kinase inhibition; format: biochemical; details: read-out: Percentage of inhibition (%)
Excerpt: as §1

CDK18/cyclin Y = CDK18/cyclin Y (Homo sapiens, UniProt Q07002); assay: CDK panel kinase inhibition; format: biochemical; details: read-out: Percentage of inhibition (%)
Excerpt: as §1

CDK2/cyclin A = CDK2/cyclin A (Homo sapiens, UniProt P24941); assay: CDK panel kinase inhibition; format: biochemical; details: read-out: Percentage of inhibition (%)
Excerpt: as §1

CDK3/cyclin E1 = CDK3/cyclin E1 (Homo sapiens, UniProt Q00526); assay: CDK panel kinase inhibition; format: biochemical; details: read-out: Percentage of inhibition (%)
Excerpt: as §1

CDK4/cyclin D1 = CDK4/cyclin D1 (Homo sapiens, UniProt P11802); assay: CDK panel kinase inhibition; format: biochemical; details: read-out: Percentage of inhibition (%)
Excerpt: as §1

CDK4/cyclin D3 = CDK4/cyclin D3 (Homo sapiens, UniProt P11802); assay: CDK panel kinase inhibition; format: biochemical; details: read-out: Percentage of inhibition (%)
Excerpt: as §1

CDK5 (Inactive) = CDK5 (Inactive) (Homo sapiens, UniProt Q00535); assay: CDK panel kinase inhibition; format: biochemical; details: read-out: Percentage of inhibition (%)
Excerpt: as §1

CDK5/p25 = CDK5/p25 (Homo sapiens, UniProt Q00535); assay: CDK panel kinase inhibition; format: biochemical; details: read-out: Percentage of inhibition (%)
Excerpt: as §1

CDK5/p35 = CDK5/p35 (Homo sapiens, UniProt Q00535); assay: CDK panel kinase inhibition; format: biochemical; details: read-out: Percentage of inhibition (%)
Excerpt: as §1

CDK6/cyclin D1 = CDK6/cyclin D1 (Homo sapiens, UniProt Q00534); assay: CDK panel kinase inhibition; format: biochemical; details: read-out: Percentage of inhibition (%)
Excerpt: as §1

CDK7/cyclin H/MNAT1 = CDK7/cyclin H/MNAT1 (Homo sapiens, UniProt P50613); assay: CDK panel kinase inhibition; format: biochemical; details: read-out: Percentage of inhibition (%)
Excerpt: as §1

CDK9/cyclin T1 = CDK9/cyclin T1 (Homo sapiens, UniProt P50750); assay: CDK panel kinase inhibition; format: biochemical; details: read-out: Percentage of inhibition (%)
Excerpt: as §1

[1] = system: CD34+/CD38- AML TEX cells; assay: Flow cytometry of differentiation/maturation markers; format: cell-based, human
Description: […] novel human leukemic cell line (TEX) cells were plated on 100 mm culture dishes at 5 × 10^5 per well, starved with medium containing IMDM supplemented with 1.5%FCS, 2 ng/ml SCF, and 0.2 ng/ml IL-3 (Amgen, Thousand Oaks, CA, USA) overnight. […] Media with tested drugs was replaced on the third day. Following the 6-day treatments, cultures were washed once in Sort buffer (PBS + 2% FBS + 2 mM EDTA), and resuspended to a final concentration of 50 million cells/mL into a 96-well V-shaped plate. Cells were subsequently incubated with Zombie Aqua Fixable Viability Dye (Thermo), washed with Sort buffer, and incubated with Human FcX (BioLegend) to prevent non-specific antibody binding. Following FcX incubation, cells were washed with Sort buffer and incubated with cell surface antibody mix diluted in the BV stain buffer (BD Biosciences) following manufacturer instructions for 30 mins on ice in the dark. Cells were then washed with 100 mL Sort buffer and permeabilized in fresh Fix/Perm solution (Foxp3 Transcription Factor Staining Buffer from eBioscience) following the manufacturer’s instructions. Cell were subsequently incubated in intracellular stain mix in Perm Buffer (1 mL 10× Perm Buffer (eBiosceince) + 8.8 mL dH2O + 2% FCS) for 30 mins on ice in dark. Isotype controls were stained with mouse IgG conjugated to FITC, PE, PerCP-Cy5.5, PE-Cy7, APC, and Alexa Fluor™ 700. Antibodies used to stain cells were FITC-conjugated anti-CD93, PE-conjugated anti-CD96, PerCP-Cy5.5-conjugated anti-CD38, PE-Cy7-conjugated anti CD-34, APC-conjugated anti-CD117, and Alexa Fluor™ 700-conjugated LIVE/DEAD (Invitrogen). Stained samples were resuspended in Perm Buffer and run on a FACSAriaII Flow Cytometer (BD Biosciences). Data were analyzed in FACSDiva (BD Biosciences) and FlowJo (Treestar). To determine the absolute numbers of cells in samples analyzed by FACS, AccuCount beads (Spherotech) were added to stained samples prior to each FACS run per manufacturer’s instructions, and absolute cell counts were calculated based on the known number of beads added. In order to cellularly differentiate apoptosis in AML cells, MOLM14, as a result of synergetic treatments of MK256 combined with ABT199, we used Dead Cell Apoptosis Kits with Annexin V (Invitrogen). MOLM14 cells were plated on a 96-well V-shaped plate at 5x10^5 per well, starved with medium containing 99% RPMI 1640, 1% FBS, and 1X Antibiotic-Antimycotic (Invitrogen). MK256 were added to final concentrations of 13.7 nM, 41.2 nM, 123.5 nM, 370.4 nM, […] on each column, while ABT199 was at final concentrations of 0.2 nM, 0.5 nM, 4.1 nM, 12.3 nM, 37.0 nM on each row. Following 72-hr retreatment, cultures were washed once in Sort buffer (PBS + 2% FBS + 2 mM EDTA) and resuspended to a final concentration of 10^4 cells/well into a 96-well V-shaped plate. Cells were subsequently incubated with Alex Fluor™ 488 annexin V and PI for Flow Cytometry following manufacturer’s instructions.

Sequence of CDK18/cyclin Y (Q07002 whole entry): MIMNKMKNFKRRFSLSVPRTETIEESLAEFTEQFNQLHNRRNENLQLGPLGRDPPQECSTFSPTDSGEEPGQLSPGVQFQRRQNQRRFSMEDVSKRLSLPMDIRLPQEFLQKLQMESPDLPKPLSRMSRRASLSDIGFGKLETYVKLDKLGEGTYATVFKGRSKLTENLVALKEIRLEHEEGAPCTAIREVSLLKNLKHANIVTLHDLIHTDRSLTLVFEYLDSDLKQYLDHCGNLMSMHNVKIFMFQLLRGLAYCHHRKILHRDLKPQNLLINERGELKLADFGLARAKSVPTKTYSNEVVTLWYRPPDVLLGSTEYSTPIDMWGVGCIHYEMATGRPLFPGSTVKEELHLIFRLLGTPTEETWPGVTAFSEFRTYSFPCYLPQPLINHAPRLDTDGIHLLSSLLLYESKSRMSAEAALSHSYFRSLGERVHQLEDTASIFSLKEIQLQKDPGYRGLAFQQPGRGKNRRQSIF
Sequence of CDK18/cyclin Y (Q8ND76 whole entry partner): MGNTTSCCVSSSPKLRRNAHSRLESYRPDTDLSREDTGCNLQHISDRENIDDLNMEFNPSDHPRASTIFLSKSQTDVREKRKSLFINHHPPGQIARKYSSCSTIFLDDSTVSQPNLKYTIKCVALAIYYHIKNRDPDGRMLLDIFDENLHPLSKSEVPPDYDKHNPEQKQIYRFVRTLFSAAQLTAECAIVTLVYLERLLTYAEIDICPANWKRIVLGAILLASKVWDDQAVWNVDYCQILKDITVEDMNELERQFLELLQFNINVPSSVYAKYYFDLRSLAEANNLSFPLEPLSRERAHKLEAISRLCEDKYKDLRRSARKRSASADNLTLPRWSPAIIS
Sequence of CDK16 (PCTK1)/cyclin Y (Q00536 whole entry): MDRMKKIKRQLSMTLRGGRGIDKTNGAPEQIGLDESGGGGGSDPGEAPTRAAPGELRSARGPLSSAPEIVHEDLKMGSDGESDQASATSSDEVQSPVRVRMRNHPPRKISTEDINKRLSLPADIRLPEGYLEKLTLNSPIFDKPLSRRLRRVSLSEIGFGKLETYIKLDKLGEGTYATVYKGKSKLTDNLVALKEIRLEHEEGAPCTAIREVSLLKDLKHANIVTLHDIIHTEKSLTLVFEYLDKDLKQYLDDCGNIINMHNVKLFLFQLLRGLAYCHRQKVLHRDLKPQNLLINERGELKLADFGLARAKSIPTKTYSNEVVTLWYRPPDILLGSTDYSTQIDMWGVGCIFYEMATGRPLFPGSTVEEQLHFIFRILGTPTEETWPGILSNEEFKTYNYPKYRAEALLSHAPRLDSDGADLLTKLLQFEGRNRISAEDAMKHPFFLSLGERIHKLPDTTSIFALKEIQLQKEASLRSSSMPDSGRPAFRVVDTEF
Sequence of CDK16 (PCTK1)/cyclin Y (Q8ND76 whole entry partner): as the sequence (Q8ND76 whole entry partner) above
Sequence of CDK7/cyclin H/MNAT1 (P50613 whole entry): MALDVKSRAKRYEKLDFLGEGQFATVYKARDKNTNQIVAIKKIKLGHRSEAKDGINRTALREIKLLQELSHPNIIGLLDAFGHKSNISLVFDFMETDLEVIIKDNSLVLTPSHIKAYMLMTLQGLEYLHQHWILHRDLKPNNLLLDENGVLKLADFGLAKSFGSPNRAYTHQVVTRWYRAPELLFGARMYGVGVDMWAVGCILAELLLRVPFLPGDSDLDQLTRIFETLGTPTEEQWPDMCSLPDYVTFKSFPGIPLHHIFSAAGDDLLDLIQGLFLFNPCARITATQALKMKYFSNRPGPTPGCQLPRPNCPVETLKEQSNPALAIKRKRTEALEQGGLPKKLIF
Sequence of CDK7/cyclin H/MNAT1 (P51946 whole entry partner): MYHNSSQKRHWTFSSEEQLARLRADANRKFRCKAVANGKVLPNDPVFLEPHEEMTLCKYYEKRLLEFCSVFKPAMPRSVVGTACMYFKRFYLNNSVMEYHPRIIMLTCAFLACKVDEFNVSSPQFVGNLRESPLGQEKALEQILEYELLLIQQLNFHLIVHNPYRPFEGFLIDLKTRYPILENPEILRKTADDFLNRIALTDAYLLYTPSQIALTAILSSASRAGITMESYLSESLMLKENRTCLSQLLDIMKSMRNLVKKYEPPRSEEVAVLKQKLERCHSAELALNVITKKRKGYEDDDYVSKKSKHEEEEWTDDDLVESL
Sequence of CDK7/cyclin H/MNAT1 (P51948 whole entry partner): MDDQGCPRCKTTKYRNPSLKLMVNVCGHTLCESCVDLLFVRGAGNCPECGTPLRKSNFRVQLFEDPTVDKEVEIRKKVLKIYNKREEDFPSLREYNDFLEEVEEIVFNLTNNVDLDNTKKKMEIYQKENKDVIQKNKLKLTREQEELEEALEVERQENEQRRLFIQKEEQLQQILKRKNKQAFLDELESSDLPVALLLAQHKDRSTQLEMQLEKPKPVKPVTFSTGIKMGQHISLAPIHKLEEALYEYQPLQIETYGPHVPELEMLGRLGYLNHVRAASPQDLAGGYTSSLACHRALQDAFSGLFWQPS
Sequence of CDK14 (PFTK1)/cyclin Y (O94921 whole entry): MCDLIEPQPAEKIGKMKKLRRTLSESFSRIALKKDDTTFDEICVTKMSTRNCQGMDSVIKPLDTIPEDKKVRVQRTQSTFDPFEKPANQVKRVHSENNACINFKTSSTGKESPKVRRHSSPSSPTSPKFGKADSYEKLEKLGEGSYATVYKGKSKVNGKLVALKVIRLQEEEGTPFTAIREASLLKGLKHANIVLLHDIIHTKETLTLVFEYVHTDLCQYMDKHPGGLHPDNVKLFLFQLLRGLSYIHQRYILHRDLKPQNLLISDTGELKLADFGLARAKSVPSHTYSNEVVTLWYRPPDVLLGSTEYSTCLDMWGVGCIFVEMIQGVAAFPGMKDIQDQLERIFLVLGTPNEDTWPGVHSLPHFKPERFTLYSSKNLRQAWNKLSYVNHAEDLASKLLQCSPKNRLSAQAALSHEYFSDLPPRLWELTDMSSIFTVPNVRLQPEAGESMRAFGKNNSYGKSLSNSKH
Sequence of CDK14 (PFTK1)/cyclin Y (Q8ND76 whole entry partner): as the sequence (Q8ND76 whole entry partner) above
Sequence of CDK6/cyclin D1 (Q00534 whole entry): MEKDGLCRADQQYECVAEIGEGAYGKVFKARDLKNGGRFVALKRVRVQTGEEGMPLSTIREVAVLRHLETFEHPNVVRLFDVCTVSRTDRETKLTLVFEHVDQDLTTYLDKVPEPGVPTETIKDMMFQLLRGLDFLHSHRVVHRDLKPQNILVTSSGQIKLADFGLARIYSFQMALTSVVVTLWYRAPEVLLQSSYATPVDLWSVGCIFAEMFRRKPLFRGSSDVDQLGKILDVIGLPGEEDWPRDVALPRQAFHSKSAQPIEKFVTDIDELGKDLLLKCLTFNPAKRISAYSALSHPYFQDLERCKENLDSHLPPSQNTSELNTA
Sequence of CDK6/cyclin D1 (P24385 whole entry partner): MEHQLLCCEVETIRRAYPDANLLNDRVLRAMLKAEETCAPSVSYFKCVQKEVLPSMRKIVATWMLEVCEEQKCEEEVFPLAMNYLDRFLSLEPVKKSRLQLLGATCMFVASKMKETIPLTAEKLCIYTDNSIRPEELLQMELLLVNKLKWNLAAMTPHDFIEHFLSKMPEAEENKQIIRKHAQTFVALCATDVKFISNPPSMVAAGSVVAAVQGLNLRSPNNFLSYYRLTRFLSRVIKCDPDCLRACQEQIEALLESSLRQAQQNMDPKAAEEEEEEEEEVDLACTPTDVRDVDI
Sequence of CDK5/p35 (Q00535 whole entry): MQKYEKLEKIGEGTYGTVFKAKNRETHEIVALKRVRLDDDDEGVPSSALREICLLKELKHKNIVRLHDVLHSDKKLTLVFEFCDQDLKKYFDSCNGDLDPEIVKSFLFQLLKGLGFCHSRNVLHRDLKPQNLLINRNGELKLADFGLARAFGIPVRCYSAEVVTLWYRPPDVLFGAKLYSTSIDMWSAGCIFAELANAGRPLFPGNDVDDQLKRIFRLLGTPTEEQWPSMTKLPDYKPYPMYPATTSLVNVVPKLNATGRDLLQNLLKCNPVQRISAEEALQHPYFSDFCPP
Sequence of CDK5/p35 (Q15078 2-307 partner limits assumed): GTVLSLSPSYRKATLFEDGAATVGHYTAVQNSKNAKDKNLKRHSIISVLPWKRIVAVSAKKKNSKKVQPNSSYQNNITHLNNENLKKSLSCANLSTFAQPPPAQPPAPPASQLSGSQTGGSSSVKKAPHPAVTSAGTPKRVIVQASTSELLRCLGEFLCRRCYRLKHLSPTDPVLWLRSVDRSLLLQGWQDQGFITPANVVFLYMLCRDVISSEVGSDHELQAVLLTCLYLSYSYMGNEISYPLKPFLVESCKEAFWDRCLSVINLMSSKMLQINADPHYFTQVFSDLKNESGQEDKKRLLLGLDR
Sequence of CDK5/p25 (Q00535 whole entry): as the sequence (Q00535 whole entry) above
Sequence of CDK5/p25 (Q15078 99-307 partner limits assumed): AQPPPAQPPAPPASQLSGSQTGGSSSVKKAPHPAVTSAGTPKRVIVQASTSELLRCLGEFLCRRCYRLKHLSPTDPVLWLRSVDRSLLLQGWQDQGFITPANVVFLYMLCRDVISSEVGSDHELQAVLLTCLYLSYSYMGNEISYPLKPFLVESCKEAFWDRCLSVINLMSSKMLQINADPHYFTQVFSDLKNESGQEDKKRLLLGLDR
Sequence of CDK5 (Inactive) (Q00535 whole entry): as the sequence (Q00535 whole entry) above

Nc1nccc2c(Br)cc3cc(C(=O)O)ccc3c12 [MK256]
inhibition at 0.2 µM (CDK1/cyclin B; 200 nM): 34%
inhibition at 10 µM (CDK1/cyclin B; 10 μM): 97%
inhibition at 0.2 µM (CDK13/cyclin K; 200 nM): 27%
inhibition at 10 µM (CDK13/cyclin K; 10 μM): 95%
inhibition at 0.2 µM (CDK14 (PFTK1)/cyclin Y; 200 nM): 23%
inhibition at 10 µM (CDK14 (PFTK1)/cyclin Y; 10 μM): 97%
inhibition at 0.2 µM (CDK16 (PCTK1)/cyclin Y; 200 nM): 1%
inhibition at 10 µM (CDK16 (PCTK1)/cyclin Y; 10 μM): 67%
inhibition at 0.2 µM (CDK17/cyclin Y; 200 nM): 25%
inhibition at 10 µM (CDK17/cyclin Y; 10 μM): 94%
inhibition at 0.2 µM (CDK18/cyclin Y; 200 nM): 37%
inhibition at 10 µM (CDK18/cyclin Y; 10 μM): 98%
inhibition at 0.2 µM (CDK2/cyclin A; 200 nM): 7%
inhibition at 10 µM (CDK2/cyclin A; 10 μM): 85%
inhibition at 0.2 µM (CDK3/cyclin E1; 200 nM): 4%
inhibition at 10 µM (CDK3/cyclin E1; 10 μM): 82%
inhibition at 0.2 µM (CDK4/cyclin D1; 200 nM): 2%
inhibition at 10 µM (CDK4/cyclin D1; 10 μM): 23%
inhibition at 0.2 µM (CDK4/cyclin D3; 200 nM): -3%
inhibition at 10 µM (CDK4/cyclin D3; 10 μM): 23%
inhibition at 0.2 µM (CDK5 (Inactive); 200 nM): 7%
inhibition at 10 µM (CDK5 (Inactive); 10 μM): 70%
inhibition at 0.2 µM (CDK5/p25; 200 nM): 2%
inhibition at 10 µM (CDK5/p25; 10 μM): 89%
inhibition at 0.2 µM (CDK5/p35; 200 nM): 7%
inhibition at 10 µM (CDK5/p35; 10 μM): 90%
inhibition at 0.2 µM (CDK6/cyclin D1; 200 nM): -12%
inhibition at 10 µM (CDK6/cyclin D1; 10 μM): 23%
inhibition at 0.2 µM (CDK7/cyclin H/MNAT1; 200 nM): 9%
inhibition at 10 µM (CDK7/cyclin H/MNAT1; 10 μM): 54%
inhibition at 0.2 µM (CDK9/cyclin T1; 200 nM): 82%
inhibition at 10 µM (CDK9/cyclin T1; 10 μM): 98%
differentiation of TEX cells ([1]; 50 nM): slightly induced the differentiation
decrease of CD93 relative to control ([1]; 50 nM, day 6): 6.5%
increase of CD117 population relative to control ([1]; 50 nM, day 6): 16.5%
reduction in CD34 compared to control cells ([1]; 50 nM, day 6): 13%
differentiation of TEX cells ([1]; 500 nM): much more effective
decrease of CD93 relative to control ([1]; 500 nM, day 6): approximately 30%
increase of CD117 population relative to control ([1]; 500 nM, day 6): 8.6%
reduction in CD34 compared to control cells ([1]; 500 nM, day 6): 28%
expression of CD96 with or without treatment ([1]; day 6): no difference
reduction of CD38 negativity ([1]; treated vs control (60% CD38-)): approximately 2 fold
